According to ChEMBL document CHEMBL1151660, “Carotenoids of tunicates. III. The structural elucidation of two new marine carotenoids, amarouciaxanthin A and B” (1985):
Values after ≈ are worked out from the molar mass of the structure shown.

Columns and labels:
[1] = test system: L1210; assay: Cytotoxicity against mouse L1210 cells after 4 days; type: functional; settings: L1210, 96 h, read-out: ED50 (the source's name)
[2] = test system: P388; assay: Cytotoxicity against mouse P388 cells after 4 days; type: functional; settings: P388, 96 h, read-out: ED50 (the source's name)

SMILES | EC50 [1] [µg/mL] | EC50 [2] [µg/mL]
CC1=CC(=O)CC(C)(C)[C@@]1(O)CC(=O)/C(C)=C/C=C/C(C)=C/C=C/C=C(C)/C=C/C=C(\C)C=C=C1C(C)(C)C[C@H](O)C[C@@]1(C)O [AMAROUCIAXANTHIN A] | 50 (≈ 81.3 µM) | 150 (≈ 244 µM)
CC1=CC(=O)CC(C)(C)[C@@]1(O)CC(=O)/C(C)=C/C=C/C(C)=C/C=C/C=C(C)/C=C/C=C(\C)C#CC1=C(C)C[C@@H](O)CC1(C)C [AMAROUCIAXANTHIN B] | 100 (≈ 168 µM) | 300 (≈ 503 µM)
CC1=C(C#C/C(C)=C/C=C/C(C)=C/C=C/C=C(C)/C=C/C=C(\C)C(=O)C[C@@]23O[C@]2(C)C[C@@H](O)CC3(C)C)C(C)(C)C[C@H](O)C1 [HALOCYNTHIAXANTHIN] | 25 (≈ 41.7 µM) | 12.5 (≈ 20.9 µM)
